Laboratory results: patent publication US4196202A, “Carcinostatic composition containing 3-N-o-toluyl-5-fluorouracil producing the same” (priority 1977, dated 1980)
≈ marks a conversion by molar mass, not a printed value. Like-named read-outs stand apart in the source and are kept apart here.

Experiments:
[1] = test system: cancerous and tumorous cells; test: tests of carcinostatic effect (several tests including a biological test); conditions: high dose sometimes leads to less effect than a low dose
Excerpt: The present invention relates to carcinostatic compounds and compositions and a process for producing the same chiefly containing 5-fluorouracil derivatives (hereinafter referred to as 5-FU). 5-FU and its various derivatives are known to act as carcinostatic agents which disrupt cancerous cells or depress the multiplication thereof. […] That is to say, in spite of the fact that a remarkable carcinostatic effect was achnowledged using a low dose, a high dose sometimes leads to less carcinostatic effects than a low dose. […] In general, it can be easily presumed that these acylated 5-FU compounds, having the substituent group of NH, are to be obtained in acylation with the reagents represented by the general formula such as RCOX, wherein R represents an acyl group and X is halogen and (RCO)2 O, wherein R is an acyl group. However, 3-N-acyl-5-FU cannot be obtained directly from 5-FU because the acylation will preferably occur at the 1-position of 5-FU when 5-FU is reacted with the reagents under normal conditions. […]
In addition, the composition has many other advantageous features, e.g., only a low dose is necessary to be effective so that harmful side-effects are avoided as regards the normal cells. […] Furthermore, it is believed that the 5-FU ring is readily incorporated into RNA as a substituent for uracil. […]

[2] = test system: human thyroid cancer cells; test: growth inhibition of human thyroid cancerous cells in culture (Example 7); assay type: cell-based; conditions: for IC50 / MIC: Homo sapiens, 72 h; for IC50: dose per unit volume effective for 50% of the cells, read-out: ED50 (the source's name)
Excerpt: (§1) Included in Tables 5 through 7 for comparison are carcinostatic effect of 3-N-o-toluyl-5-FU on various kinds of cancerous cells. In these tables, MIC represents minimum inhibitory concentration (γ or microgram/ml) required to inhibit the growth of cancerous cells in a culture medium and ED50 (γ or microgram/ml) represents the dose per unit volume effective for 50% of the cells.
(2) Human thyroid cancerous cells; and
(§2) Each kind of said cancerous cells, having an initial number of 3×10^4 and 4×10^4 was cultured in a nutrient medium on a slide glass in a flat bottle for 24 hours to make more than one sample, respectively; half for 5-FU and the other for 3-N-o-toluyl-5-FU in oil emulsion. Then 5-FU diluted with water of different concentrations and 3-N-o-toluyl-5-FU in oil emulsion of different concentrations was respectively added to the cells of each of said plate to make several different concentrations of said compounds per unit volume of each cell, and the culture was continued for three days. The manner of the action of each of said compounds against each of the cells at different concentrations (weight per unit volume of cell) was observed by an inverted phase contrast microscope with the passage of time, as well as the multiplication and the change in morphology of the cells were examined by fixing and staining the cells on the slide glass after a period of three days. As a nutrient medium, MEM S10 or HAM-F S10 was employed. HAM-F S10 is a 10% serum supplemented medium described by Richard G. Ham in 1964, and is sold under the tradename "HAM F12 Nissui" in Japan.
(§3) The molecular weight of 5-FU is about 130 and that of 3-N-o-toluyl-5-FU is about 248. […] Accordingly, as used in the following explanations, the terms "weight concentration" refers to the γgm/ml of each compound used in a given test, and the term "molarity" generally refers to the number of molecules of each compound present in a given amount used in a test.

[3] = test system: Leiomyosarcoma cells; test: growth inhibition of leiomyosarcoma cells in culture (Example 8); assay type: cell-based, human; conditions: for IC50 / MIC: Homo sapiens, 72 h; for IC50: dose per unit volume effective for 50% of the cells, read-out: ED50 (the source's name)
Excerpt: as §1
(3) Leiomyosarcoma cells of human.
as §2, §3

[4] = test system: Sarcoma 180; test: Carcinostatic effect against Sarcoma 180 of a mouse, and toxicity (Example 5); assay type: in vivo; conditions: for toxicity: general debility, decrease in weight and napping; for ratio of tumor in wt.: seven days, Control 1.00
Protocol: Mice were separated into 7 groups of 10 mice. Sarcoma 180, having an initial cell number of 5×10^5, was innoculated hypodermically into each subject. After 24 hours, each composition was given to the subject mouse, except the Control, at the dose as shown in Table 3 for seven (7) consecutive days. On the tenth day from the initial innoculation, each subject was anatomized to examine the tumor weight, the average of which was then compared with that of the Control. Toxicity was also interpreted in view of general debility, decrease in weight and napping. In this test, 3-N-o-toluyl-5-FU was administered orally in the form of powder mixed with water, which was isolated by chromatography from that in oil emulsion.

[5] = test system: AH 130 (tumor cells of liver cancer of a rat); test: Carcinostatic effect against AH 130 (tumor cells of liver cancer of a rat), and toxicity (Example 5); assay type: in vivo; conditions: for ratio of tumor in wt.: seven days, Control 1.00
Protocol: To further show the advantageous effects of 3-N-o-toluyl-5-FU of the present invention over related compounds known in the art, such as FT-207 and 5-FU, tests were conducted in accordance with the procedures as described below and the results are presented in Tables 3 and 4.
Rats were separated into 7 groups of 10 rats. AH 130, having an initial cell number of 5×10^5, was injected hypodermically into each subject and, after 24 hours, each composition was given to each subject rat at the dose shown in Table 4 for seven (7) consecutive days. On the 10th day from the initial innoculation, each subject was anatomized to examine the tumor weight, the average of which was compared with that of the non-treated Control. In this test, 3-N-o-toluyl-5-FU was also administered orally in the form of powder as in the former test.

[6] = test system: mouse foot pad cells; test: side-effects on normal cells, mouse foot pad cells (Example 9); assay type: cell-based; conditions: for MIC: Mus musculus, 72 h, Table 8, normal cells, procedures of Examples 6-8
Protocol: as §2
(§4) Using the same procedures as in Examples 6-8, it was investigated whether the compound of the invention causes side-effects on normal cells.
(§5) ED50 for normal cells mean that this dose will inhibit the normal propagation of 50% of unattacked cells (that is, it may cause a harmful influence upon normal cells), while MIC for cancerous cells means that this dose will inhibit the multiplication of 100% of cancerous cells. Consequently when MIC of a compound for cancerous cells exceeds ED50 of the same for normal cells, it is considered that this compound must have side-effects.

[7] = as above; assay type: cell-based; conditions: mouse, foot pad cells; for cytotoxicity: MIC for Ehlrich cancerous cells versus ED50 for normal cells, read-out: normal cells damaged at the minimum dose inhibiting multiplication of the cancerous cells; for CC50 at 72 h: Table 8, normal cells, procedures of Examples 6-8, read-out: ED50
Protocol: as §2, §4, §5

[8] = test system: Ehrich cancerous cells; test: growth inhibition of Ehrich cancerous cells in culture (Example 6); assay type: cell-based, mouse; conditions: for MIC / IC50: Mus musculus, 72 h; for IC50: Ehrlich, dose per unit volume effective for 50% of the cells, read-out: ED50 (the source's name)
Protocol: Cancerous cells employed:
(1) Ehrich cancerous cells of mouse;
Each kind of said cancerous cells, having an initial number of 3×10^4 and 4×10^4 was cultured in a nutrient medium on a slide glass in a flat bottle for 24 hours to make more than one sample, respectively; half for 5-FU and the other for 3-N-o-toluyl-5-FU in oil emulsion. Then 5-FU diluted with water of different concentrations and 3-N-o-toluyl-5-FU in oil emulsion of different concentrations was respectively added to the cells of each of said plate to make several different concentrations of said compounds per unit volume of each cell, and the culture was continued for three days. […] As a nutrient medium, MEM S10 or HAM-F S10 was employed.

[9] = Table 6, minimum inhibitory concentration, three days, read-out: MIC
[10] = Table 7, minimum inhibitory concentration, three days, read-out: MIC
[11] = 100 mg/kg daily, total 700 mg/kg
[12] = Tables 3 and 4 (Sarcoma 180 mice and AH 130 rats)
[13] = 30 mg/kg daily, total 210 mg/kg
[14] = Example 9, read-out: MIC for Ehrich cancerous cells
[15] = Table 5, minimum inhibitory concentration, three days, read-out: MIC
[16] = 200 mg/kg daily, total 1400 mg/kg
[17] = 90 mg/kg daily, total 630 mg/kg

Row | SMILES | IC50 ([2]; Table 6, three days) | MIC [2, 9] | IC50 ([3]; Table 7, three days) | MIC [3, 10] | toxicity [4, 11] | ratio of tumor in wt. [4, 11] | toxic side-effects with increasing amount administered [4, 12] | toxicity [5, 13] | ratio of tumor in wt. [5, 13] | MIC [6] | cytotoxicity [7] | CC50 at 72 h [7] | MIC [8, 14] | MIC [8, 15] | IC50 ([8]; Table 5, three days) | further results
1 | Cc1ccccc1C(=O)n1cc(F)c(=O)n(C(=O)c2ccccc2C)c1=O [1,3-di-N-o-toluyl-5-FU] |  |  |  |  |  |  |  |  |  |  |  |  |  |  |  | carcinostatic effect, stability of the effect [1]: extremely unstable
2 | Cc1ccccc1C(=O)n1c(=O)[nH]cc(F)c1=O [3-N-o-toluyl-5-FU, 3-N-o-toluyl-5-fluorouracil] | 0.6 µg/mL (≈ 2.42 µM) | 1.25 µg/mL (≈ 5.04 µM) | 0.3 µg/mL (≈ 1.21 µM) | 1.25 µg/mL (≈ 5.04 µM) | - | 0.367 | does not produce toxic side-effects | - | 0.84 | 10 µg/mL (≈ 40.3 µM) | < 50% | 2.5 µg/mL (≈ 10.1 µM) | 2 µg/mL (≈ 8.06 µM) | 2 µg/mL (≈ 8.06 µM) | 1 µg/mL (≈ 4.03 µM) | dose in weight concentration for carcinostatic effects, compared with 5-FU ([2]; Table 6): less than half the dose in weight concentration than that of 5-FU; carcinostatic efficacy compared with 5-FU ([3]; weight concentration, Table 7): considerably superior to 5-FU; toxicity ([4]; 50 mg/kg daily, total 350 mg/kg): -; ratio of tumor in wt. ([4]; 50 mg/kg daily, total 350 mg/kg, oral powder mixed with water): 0.550; toxicity [5, 11]: -; ratio of tumor in wt. ([5]; 100 mg/kg daily, total 700 mg/kg, oral powder): 0.35; side-effects compared with 5-FU ([6]; MIC for Ehrich cancerous cells versus ED50 for normal cells): less side-effects than 5-FU; number of molecules for ED50 relative to 5-FU ([8]; number of molecules as reference standard): half that of 5-FU; MIC compared with 5-FU ([8]; weight concentration and molarity): apparently superior to 5-FU in both weight concentration and molarity
3 | O=c1[nH]cc(F)c(=O)[nH]1 [5-FU, 5-fluorouracil] | 1.25 µg/mL (≈ 9.61 µM) | 2.5 µg/mL (≈ 19.2 µM) | 1.25 µg/mL (≈ 9.61 µM) | 2.5 µg/mL (≈ 19.2 µM) |  |  | increasing the amount of the compound administered produces toxic results | + | 0.55 | 10 µg/mL (≈ 76.9 µM) | 50% | 2.5 µg/mL (≈ 19.2 µM) | 2.5 µg/mL (≈ 19.2 µM) | 2.5 µg/mL (≈ 19.2 µM) | 1 µg/mL (≈ 7.69 µM) | MIC ([2]; Table 9, read-out: MIC (human thyroid cancerous cells)): 2.5 µg/mL (≈ 19.2 µM); MIC ([3]; Table 9, read-out: MIC (leiomysarcoma)): 2.5 µg/mL (≈ 19.2 µM); toxicity ([4]; 10 mg/kg daily, total 70 mg/kg): -; ratio of tumor in wt. ([4]; 10 mg/kg daily, total 70 mg/kg): 0.840; toxicity [4, 13]: +; ratio of tumor in wt. [4, 13]: 0.540; toxicity ([5]; 10 mg/kg daily, total 70 mg/kg): -; ratio of tumor in wt. ([5]; 10 mg/kg daily, total 70 mg/kg): 0.72; MIC ([8]; Table 9 and text, read-out: MIC (Elrich cancerous cells)): 2.5 µg/mL (≈ 19.2 µM)
4 | O=c1[nH]c(=O)n(C2CCCO2)cc1F (centres unmarked) [FT-207] |  |  |  |  | - | 0.516 |  |  |  |  |  |  |  |  |  | toxicity [4, 16]: +; ratio of tumor in wt. [4, 16]: 0.418; toxic side-effects with increasing amount administered ([4]; mouse, in vivo): increasing the amount of the compound administered produces toxic results; toxicity [5, 17]: -; ratio of tumor in wt. [5, 17]: 0.60; toxicity [5, 16]: +; ratio of tumor in wt. [5, 16]: 0.35
